Data on 13 compounds can be found in ChEMBL document CHEMBL3808305, “Discovery of fused tricyclic core containing HCV NS5A inhibitors with pan-genotype activity” (Bioorg Med Chem Lett, 2016).

The structures appear in SMILES notation. pEC50: −log10 of the molar value. Some results are limits rather than exact numbers.

In series [1] the test system is Hepatitis C virus. Nature of the series: Antiviral activity against HCV genotype 1a assessed as decrease in HCV replicon RNA replication after 3 days by taqman assay based cell based replicon method. The following applies: subtype 1a, 72 h. The format is functional, organism-based, Hepacivirus hominis. (In antiviral work, replicon cells carry a viral genome segment that copies itself.)

Series [2] can be described thus: AUC in Sprague-Dawley rat at 10 mg/kg, po. The format is ADME, organism-based. As to conditions: in vivo.
Series [3] has as its system Hepatitis C virus. Nature of the series: Antiviral activity against HCV genotype 1a expressing NS5A Y93H mutant assessed as decrease in HCV replicon RNA replication after 3 days by taqman assay based cell based replicon method. In kind it is functional, organism-based, Hepacivirus hominis. As to conditions: subtype 1a, 72 h.
The nature of series [4]: Clearance in Sprague-Dawley rat at 10 mg/kg, po or 2 mg/kg, iv. The format is ADME, organism-based. As to conditions: in vivo.
For series [5], the system named is Hepatitis C virus. Nature of the series: Antiviral activity against HCV genotype 2a assessed as decrease in HCV replicon RNA replication after 3 days by taqman assay based cell based replicon method. The format is functional, organism-based, Hepacivirus hominis. As to conditions: 72 h.
Series [6] relates to Hepatitis C virus. In words: Antiviral activity against HCV genotype 1b assessed as decrease in HCV replicon RNA replication after 3 days by taqman assay based cell based replicon method. The format is functional, organism-based, Hepacivirus hominis. As to conditions: 72 h.
Series [7] concerns Hepatitis C virus. In words: Antiviral activity against HCV genotype 3a assessed as decrease in HCV replicon RNA replication after 3 days by taqman assay based cell based replicon method. As to conditions: 72 h. The format is functional, organism-based, Hepacivirus hominis.
The nature of series [8]: Oral bioavailability in Sprague-Dawley rat at 10 mg/kg. In kind it is ADME, organism-based. As to conditions: in vivo.
Series [9] can be described thus: Half life in Sprague-Dawley rat at 10 mg/kg, po or 2 mg/kg, iv. The format is ADME, organism-based. The following applies: in vivo.
For series [10], the system named is Hepatitis C virus. Nature of the series: Antiviral activity against HCV genotype 2a JFH assessed as decrease in HCV replicon RNA replication by taqman assay based cell based replicon method. The format is functional, organism-based, Hepacivirus hominis. As to conditions: subtype 2a JFH.
In series [11] the test system is Hepatitis C virus. In words: Antiviral activity against HCV genotype 1a H77 expressing NS5A Y93H mutant infected in mouse HB1 cells assessed as decrease in HCV replicon RNA replication by taqman assay. The format is functional, organism-based, Hepacivirus hominis. As to conditions: genotype 1a H77, HB1.
For series [12], the system named is Hepatitis C virus. Nature of the series: Antiviral activity against HCV genotype 1b Con1 assessed as decrease in HCV replicon RNA replication by taqman assay based cell based replicon method. The following applies: isolate Con1. The format is functional, organism-based, Hepacivirus hominis.
In series [13] the test system is Hepatitis C virus. In words: Antiviral activity against HCV genotype 1a H77 infected in mouse HB1 cells assessed as decrease in HCV replicon RNA replication after 3 days by taqman assay. The format is functional, organism-based, Hepacivirus hominis. As to conditions: genotype 1a H77, HB1, 72 h.
In series [14] the test system is Hepatitis C virus. In words: Antiviral activity against HCV genotype 3a NC009824 assessed as decrease in HCV replicon RNA replication by taqman assay based cell based replicon method. In kind it is functional, organism-based, Hepacivirus hominis.
In series [15] the test system is Hepatitis C virus. In words: Antiviral activity against HCV genotype 1b assessed as decrease in HCV replicon RNA replication after 3 days in presence of 10% FBS by taqman assay based cell based replicon method. In kind it is functional, organism-based, Hepacivirus hominis. The following applies: 72 h.
Series [16] concerns Hepatitis C virus. In words: Antiviral activity against HCV genotype 2a assessed as decrease in HCV replicon RNA replication after 3 days in presence of 10% FBS by taqman assay based cell based replicon method. As to conditions: 72 h. In kind it is functional, organism-based, Hepacivirus hominis.
Series [17] relates to Hepatitis C virus. Nature of the series: Antiviral activity against HCV genotype 1a assessed as decrease in HCV replicon RNA replication after 3 days in presence of 10% FBS by taqman assay based cell based replicon method. In kind it is functional, organism-based, Hepacivirus hominis. The following applies: subtype 1a, 72 h.
Series [18] in a line: Clearance in Sprague-Dawley rat at 5 mg/kg, po or 2 mg/kg, iv. As to conditions: in vivo. In kind it is ADME, organism-based.
Series [19] can be described thus: AUC in Sprague-Dawley rat at 5 mg/kg, po. The format is ADME, organism-based. As to conditions: in vivo.
A short description of series [20]: Oral bioavailability in Sprague-Dawley rat at 5 mg/kg. The format is ADME, organism-based. As to conditions: in vivo.
The nature of series [21]: Half life in Sprague-Dawley rat at 5 mg/kg, po or 2 mg/kg, iv. In kind it is ADME, organism-based. As to conditions: in vivo.
Series [22] relates to Hepatitis C virus. In words: Antiviral activity against HCV genotype 3a assessed as decrease in HCV replicon RNA replication after 3 days in presence of 10% FBS by taqman assay based cell based replicon method. In kind it is functional, organism-based, Hepacivirus hominis. As to conditions: 72 h.
In series [23] the test system is Hepatitis C virus. Nature of the series: Antiviral activity against HCV genotype 1a expressing NS5A Y93H mutant assessed as decrease in HCV replicon RNA replication after 3 days in presence of 10% FBS by taqman assay based cell based replicon method. The format is functional, organism-based, Hepacivirus hominis. The following applies: subtype 1a, 72 h.

For orientation: pEC50 means −log10 of the EC50, conventionally taken in molar units. The term AUC denotes the area under the concentration-time curve, a measure of exposure. A low value points to less exposure. As usually defined, the bioavailability is dose-corrected exposure relative to a reference, in per cent. A higher bioavailability goes with good availability. A word on the half-life: it is the time needed for the level to fall by half in the phase considered. A high value points to slow loss. Regarding `COC(=O)N[C@H](C(=O)N1CCC[C@H]1c1ncc(-c2ccc3c(c2)Oc2ccc(-c4cnc([C@@H]5CCCN5C(=O)[C@@H](NC(=O)OC)C(C)C)[nH]4)cc2N3C)[nH]1)C(C)C`, the pEC50 with Hepatitis C virus [1] was 10.05; with Hepatitis C virus [3], 7.15; in the series on Hepatitis C virus [5], 10.15; in the series with Hepatitis C virus [6], 11.15; in the series on Hepatitis C virus [7] it was 9.52. The same compound had an AUC in [2] of 2.8 µM·h. The clearance in [4] is 32 mL/min/kg. The bioavailability in [8] came to 69%. In series [9], the half-life is 1.2 h.

On to `COC(=O)N[C@H](C(=O)N1CCC[C@H]1c1nc(-c2ccc3c(c2)O[C@@H](c2ccccc2)n2c-3cc3cc(-c4c[nH]c([C@@H]5CCCN5C(=O)[C@@H](NC(=O)OC)C(C)C)n4)ccc32)c[nH]1)C(C)C` [ELBASVIR], for which the pEC50 with Hepatitis C virus [10] was 11.52; in the series on Hepatitis C virus [11], 8.70; in the series on Hepatitis C virus [12], 11.52; in the series on Hepatitis C virus [13] it was 11.40; in the series on Hepatitis C virus [14], 10.70.

As for `COC(=O)N[C@H](C(=O)N1CCC[C@H]1c1ncc(-c2ccc3c(c2)Oc2ccc(-c4cnc([C@@H]5CCCN5C(=O)[C@@H](NC(=O)OC)C(C)C)[nH]4)cc2C3(C)C)[nH]1)C(C)C`, the pEC50 with Hepatitis C virus [1] is 10.70; in the series on Hepatitis C virus [3] it was 6.89; with Hepatitis C virus [5] it was greater than 10.70; in the series with Hepatitis C virus [6], 11.30; in the series on Hepatitis C virus [7], 9.52. The same compound yielded an AUC in [2] of 2.3 µM·h. Besides, in series [4], the clearance came to 19 mL/min/kg. The compound further registered a bioavailability in series [8] of 39%. The compound also showed a half-life in series [9] of 1.6 h.

For the compound `COC(=O)N[C@H](C(=O)N1CCC[C@H]1c1ncc(-c2ccc3c(c2)NC(=O)c2ccc(-c4cnc([C@@H]5CCCN5C(=O)[C@@H](NC(=O)OC)C(C)C)[nH]4)cc2O3)[nH]1)C(C)C`, the negative logarithm of the EC50 (pEC50) in the series on Hepatitis C virus [15] was 9.70; with Hepatitis C virus [16], 6.51; in the series on Hepatitis C virus [17], 6.84.

Turning to `COC(=O)N[C@H](C(=O)N1CCC[C@H]1c1ncc(-c2ccc3c(c2)Oc2ccc(-c4cnc([C@@H]5CCCN5C(=O)[C@@H](NC(=O)OC)C(C)C)[nH]4)cc2O3)[nH]1)C(C)C`, the pEC50 is 11.00 in the series with Hepatitis C virus [1], 7.80 in the series on Hepatitis C virus [3], 11.00 in the series on Hepatitis C virus [5] and 11.05 in the series with Hepatitis C virus [6]. In series [18], this compound returned a clearance of 6.4 mL/min/kg. This compound showed an AUC in series [19] of 4.5 µM·h. The compound also gave a bioavailability in series [20] of 26%. In [21], this compound gave a half-life of 1.4 h.

For `COC(=O)N[C@H](C(=O)N1CCC[C@H]1c1ncc(-c2ccc3cc4cc(-c5cnc([C@@H]6CCCN6C(=O)[C@@H](NC(=O)OC)C(C)C)[nH]5)ccc4cc3c2)[nH]1)C(C)C`, the pEC50 in the series with Hepatitis C virus [1] is 11.22; in the series on Hepatitis C virus [3], 7.06; with Hepatitis C virus [5], 11.30; in the series with Hepatitis C virus [6], 12.00; in the series with Hepatitis C virus [7] it was 10.22. The same compound showed an AUC in [2] of 13 µM·h. For the same compound, in [4], the clearance was 7.7 mL/min/kg. Besides, the bioavailability in series [8] was 46%. Further, the half-life in series [9] was 3 h.

Consider `COC(=O)N[C@H](C(=O)N1CCC[C@H]1c1ncc(-c2ccc3c(c2)Oc2ccc(-c4cnc([C@@H]5CCCN5C(=O)[C@@H](NC(=O)OC)C(C)C)[nH]4)cc2C3C2CC2)[nH]1)C(C)C` (some centres not stated), for which the pEC50 with Hepatitis C virus [22] was 9.70; in the series with Hepatitis C virus [15] it was 11.40; in the series with Hepatitis C virus [16], 11.40; in the series with Hepatitis C virus [17] it was 10.52; with Hepatitis C virus [23], 7.34.

With `COC(=O)N[C@H](C(=O)N1CCC[C@H]1c1ncc(-c2ccc3c(c2)Oc2ccc(-c4cnc([C@@H]5CCCN5C(=O)[C@@H](NC(=O)OC)C(C)C)[nH]4)cc2S3)[nH]1)C(C)C`, the pEC50 was 10.40 in the series on Hepatitis C virus [1]; 7.68 with Hepatitis C virus [3]; 10.22 in the series with Hepatitis C virus [5]; 11.70 in the series with Hepatitis C virus [6]; 9.52 with Hepatitis C virus [7]. In addition, the clearance in [18] worked out at 15 mL/min/kg. The compound further registered an AUC in series [19] of 1.1 µM·h. The same compound registered a bioavailability in series [20] of 25%. This compound showed a half-life in series [21] of 1.3 h.

As to `COC(=O)N[C@H](C(=O)N1CCC[C@H]1c1ncc(-c2ccc3c(c2)Oc2ccc(-c4cnc([C@@H]5CCCN5C(=O)[C@@H](NC(=O)OC)C(C)C)[nH]4)cc2N3c2ccccc2)[nH]1)C(C)C`, the pEC50 in the series on Hepatitis C virus [15] is 11.10; in the series with Hepatitis C virus [16], 8.52; in the series on Hepatitis C virus [17] it was 8.30.

On to `COC(=O)N[C@H](C(=O)N1CCC[C@H]1c1ncc(-c2ccc3c(c2)C=Nc2ccc(-c4cnc([C@@H]5CCCN5C(=O)[C@@H](NC(=O)OC)C(C)C)[nH]4)cc2O3)[nH]1)C(C)C`, for which the results for the pEC50 in the series with Hepatitis C virus [15], in the series with Hepatitis C virus [16] and in the series on Hepatitis C virus [17] were 10.22, 7.26 and 6.66, respectively.

`COC(=O)N[C@H](C(=O)N1CCC[C@H]1c1ncc(-c2ccc3c(c2)NC(=O)c2cc(-c4cnc([C@@H]5CCCN5C(=O)[C@@H](NC(=O)OC)C(C)C)[nH]4)ccc2O3)[nH]1)C(C)C`: the pEC50 is 7.40 in the series with Hepatitis C virus [15], less than 6.00 in the series on Hepatitis C virus [16] and 6.02 with Hepatitis C virus [17].

For `COC(=O)N[C@H](C(=O)N1CCC[C@H]1c1ncc(-c2ccc3c(c2)C=Nc2cc(-c4cnc([C@@H]5CCCN5C(=O)[C@@H](NC(=O)OC)C(C)C)[nH]4)ccc2O3)[nH]1)C(C)C`, the pEC50 in the series on Hepatitis C virus [15] is 9.30; in the series on Hepatitis C virus [16], 7.26; in the series on Hepatitis C virus [17], 7.40.

Regarding `COC(=O)N[C@H](C(=O)N1CCC[C@H]1c1ncc(-c2ccc3c(C#N)c4cc(-c5cnc([C@@H]6CCCN6C(=O)[C@@H](NC(=O)OC)C(C)C)[nH]5)ccc4nc3c2)[nH]1)C(C)C`, the pEC50 with Hepatitis C virus [15] was 11.00; in the series on Hepatitis C virus [16], 9.00; in the series on Hepatitis C virus [17], 9.52.
